Key:
AtmiR319a = assay: Expression of AtmiPEP319a2 (AtmiORF319a) in tobacco expressing AtmiR319a; assay type: in vivo, Nicotiana benthamiana; details: overexpression of AtmiORF319a
Experimental: At present, AtmiPEP165a and AtmiPEP319a2, identified in Arabidopsis thaliana, have already been characterized.
(§1) The total RNA was extracted from roots of M. truncatula or from tobacco leaves using the extraction kit RNeasy Plant Mini Kit (Qiagen). The reverse transcription was performed using the reverse transcriptase SuperScript II (Invitrogen) starting from 500 ng of total RNA. Three repetitions (n=3) were carried out, each with two technical repetitions. Each experiment was repeated from two to three times. The amplifications by qPCR were carried out using a LightCycler 480 System thermocycler (Roche Diagnostics) by the method described in Lauressergues et al. (Plant J., 72(3): 512-22, 2012).
For the miPEPs 165a and 319a, the corresponding miORFs were cloned into pBIN19 by the method described in Combier et al. (Genes & Dev, 22: 1549-1559, 2008).
(§2) The composite plants having roots transformed with Agrobacterium rhizogenes were obtained by the method described in Boisson-Dernier et al. (Mol Plant-Microbe Interact, 18: 1269-1276, 2005). The transformed roots were verified and selected by observations of DsRED with a binocular fluorescence magnifier. The control roots correspond to roots transformed with A. rhizogenes not containing the pPEX-DsRED vector. Transformation of the tobacco leaves was carried out by the method described in Combier et al. (Genes & Dev, 22: 1549-1559, 2008).

MtmiR171b [1] = assay: Watering of M. truncatula plants with synthetic MtmiPEP171b1, relative expression by qRT-PCR; assay type: in vivo, Medicago truncatula; details: watering once daily for 5 days with MtmiPEP171b1 at 0.01, 0.1 or 1 μM
Experimental: The surface of seeds of M. truncatula was sterilized and they were left to germinate on agar plates for 5 days at 4° C. in the dark. The young shoots were then grown on 12-cm square plates filled with Fahraeus medium without nitrogen and containing 7.5 μM phosphate (Lauressergues et al., Plant J., 72(3): 512-22, 2012). The lateral roots were counted every day. In pots, the plants were watered every other day with modified Long Ashton medium with low phosphorus content (Balzergue et al., Journal of Experimental Botany, (62)1049-1060, 2011).
The peptides were synthesized by Eurogentec or Smartox-Biotech. MtmiPEP171b1 was resuspended in a solution of 40% water/50% acetonitrile/10% acetic acid (v/v/v), and the other peptides were resuspended in water.
The RNA was extracted using the reagent Tri-Reagent (MRC) according to the manufacturer's instructions, except for precipitation of the RNA, which was carried out with 3 volumes of ethanol. The reverse transcription of the RNA was carried out using the specific stem-loop primer RTprimer171b in combination with hexamers for performing the reverse transcription of RNA of high molecular weight.
In brief, 1 μg of RNA was added to the stem-loop primer MIR171b (0.2 μM), the hexamer (500 ng), the buffer RT (1×), the enzyme SuperScript Reverse transcriptase (SSIII) (one unit), the dNTPs (0.2 mM each), DTT (0.8 mM) in a final reaction mixture of 25 μl. In order to carry out the reverse transcription, a reaction of pulsed reverse transcription was performed (40 repetitions of the following cycle: 16° C. for 2 minutes, 42° C. for one minute and 50° C. for one second, followed by a final inactivation of the reverse transcription at 85° C. for 5 minutes).
as §1
The mean values of the relative expression of the genes or of the production of lateral roots were analysed using the Student test or the Kruskal-Wallis test. The error bars represent the SEM (Standard Error of the Mean). The asterisks indicate a significant difference (p<0.05).

Medicago truncatula = assay: Number of lateral roots in M. truncatula; assay type: in vivo; details: vs control plant
Experimental: The surface of seeds of M. truncatula was sterilized and they were left to germinate on agar plates for 5 days at 4° C. in the dark. […] The lateral roots were counted every day. […] The mean values of the relative expression of the genes or of the production of lateral roots were analysed using the Student test or the Kruskal-Wallis test. The error bars represent the SEM (Standard Error of the Mean). The asterisks indicate a significant difference (p<0.05).

MtmiR171b [2] = assay: Overexpression of MtmiPEP171b1 (MtmiORF171b) in M. truncatula roots, relative expression by qRT-PCR; assay type: in vivo, Medicago truncatula; details: vs control plant
Experimental: as §1
(§3) The DNA fragments of interest were amplified with Pfu polymerase (Promega). The DNA fragments were cloned using the XhoI and NotI enzymes into a pPEX-DsRED plasmid for an overexpression under the control of the constitutive strong promoter 35S, and using the KpnI-NcoI enzymes into a pPEX GUS plasmid for the reporter genes, by the method described in Combier et al. (Genes & Dev, 22: 1549-1559, 2008).
as §2

[3] = test system: pre-MtmiR169, pre-MtmiR169a, pre-MtmiR171a, pre-MtmiR171h, pre-MtmiR393a, pre-MtmiR393b, pre-MtmiR396a, pre-MtmiR396b; assay: Specificity of miPEP171b1: expression of different microRNA precursors of M. truncatula; assay type: in vivo, Medicago truncatula; details: overexpression of MtmiPEP171b1 or treatment with MtmiPEP171b1 (0.1 μM), ratio to control roots
Experimental: The expression of different microRNA precursors of Medicago truncatula (MtmiR171b SEQ ID NO: 319, MtmiR169 SEQ ID NO: 367, MtmiR169a SEQ ID NO: 368, MtmiR171a SEQ ID NO: 369, MtmiR171h SEQ ID NO: 370, MtmiR393a SEQ ID NO: 371, MtmiR393b SEQ ID NO: 372, MtmiR396a SEQ ID NO: 373 and MtmiR396b SEQ ID NO: 374) was determined and compared between control plants and plants in which MtmiORF171b encoding MtmiPEP171b1 was overexpressed (FIG. 5A), or between control plants and plants grown on culture medium containing MtmiPEP171b1 (FIG. 5B).
as §1

MtmiR171b [4] = assay: Regulation of MtmiR171b by MtmiPEP171b1 in transformed tobacco leaves; assay type: in vivo, Nicotiana benthamiana; details: for relative expression of pre-MtmiR171b (expression of MtmiR171b): co-expression of MtmiPEP171b1 (MtmiORF171b ATG vs ATT), FIG. 7
Experimental: In order to determine whether the mechanism of regulation of the microRNAs is conserved in other plant species, the regulation of MtmiR171b by MtmiPEP171b1 was tested in a different cellular model. For this, MtmiR171b and MtmiPEP171b1 were introduced into tobacco leaves.
The accumulation of MtmiR171b was measured in tobacco leaves transformed in order to express MtmiR171b of Medicago truncatula starting from wild-type pri-miRNA capable of producing MtmiPEP171b1, or starting from a mutated version of pri-miRNA incapable of producing MtmiPEP171b1 (in which the start codon ATG of MtmiORF171b has been replaced with ATT) (FIG. 6 and FIG. 20).
The accumulation of pre-MtmiR171b was measured in tobacco leaves transformed in order to express MtmiR171b of Medicago truncatula alone (control), or additionally expressing the wild-type MtmiORF171b of Medicago truncatula (35SmiPEP171b1 ATG), or a mutated version of MtmiORF171b in which the start codon ATG has been replaced with ATT (35SmiPEP171b1 ATT) (FIG. 7 and FIG. 21).
The leaves were watered by spraying with the peptides using peptide solutions at different concentrations (0.01, 0.1, 1 μM), firstly 12h before sampling and then a second time 30 min before sampling.
as §1, §3, §2

AtmiR164a = assay: Northern blot of miR164a in A. thaliana roots treated with synthetic AtmiPEP164a; assay type: in vivo, Arabidopsis thaliana; details: 0.1 μM synthetic miPEP164a in water vs water
Experimental: Northern blot analysis was carried out according to the protocol described in Lauressergues et al. Plant J, 72(3): 512-22, 2012.
The biological samples were homogenized in a buffer containing 0.1 M of NaCl, 2% of SDS, 50 mM of Tris-HCl (pH 9), 10 mM of EDTA (pH 8) and 20 mM of mercaptoethanol, and the RNA was extracted twice with a phenol/chloroform mixture and was precipitated with ethanol.
The RNA was loaded on PAGE 15% gel and transferred to a nylon membrane (HybondNX, Amersham). RNA was hybridized with a radioactive oligonucleotide probe labelled at its end, in order to detect the RNA U6 or for miR164a.
The hybridizations were carried out at 55° C. The hybridization signals were quantified using a phosphorimager (Fuji) and normalized with the signal of the specific probe of RNA U6.

Arabidopsis thaliana = assay: Growth of Arabidopsis thaliana plants watered with synthetic miPEP; assay type: in vivo; details: A. thaliana; watered with 0.1 μM synthetic peptide, 3 weeks of growth, vs water
Experimental: The photographs show two plants (top views and side views) after 3 weeks of growth: a control plant watered with water (A), and a plant watered with a composition of 0.1 μM of synthetic peptide corresponding to AtmiPEP164a (B).
The photographs show two plants (top views and side views) after 3 weeks of growth: a control plant watered with water (A), and a plant watered with a composition of 0.1 μM of synthetic peptide corresponding to AtmiPEP319a1 (B).

DmmiR8 = assay: Transfected Drosophila melanogaster S2 cells, relative expression of Pre-miR8; assay type: cell-based
Experimental: S2 cells are cultured in a T75 flask in 12 mL of Schneider's medium (GIBCO), containing 1% of penicillin 100 U/mL and […] (Sigma) and 10% of decomplemented foetal calf serum (30 min at 56° C.). The transient transfections are carried out using the FuGENE® HD transfection kit (Roche), according to the recommendations. Conventionally, 1.5 million S2 cells, previously seeded in 6-well plates (3 ml of medium per well), are transfected with 250 ng of total plasmid DNA. The DNA is brought into contact with the Fugene (3 μl) in 100 μl of OPTIMEM (GIBCO). After 20 minutes, the transfection reagent formed is brought into contact with the cells in the culture medium. The RNA of the cells is extracted 66 h after transfection.

[5] = overexpression of MtmiPEP171b1 (MtmiORF171b)
[6] = tobacco expressing MtmiR171b, overexpression of MtmiPEP171b1 or 0.1 μM miPEP171b1, FIG. 9

With “MFQTLYLFIYIHTNILLLS (listed as Arabidopsis thaliana) [AtmiPEP319a2]” the “accumulation of AtmiR319a” value (AtmiR319a) was “increase”.

In the case of “MLLHRLSKFCKIERDIVYIS (listed as Medicago truncatula) [MtmiPEP171b1]”, the “accumulation of MtmiR171b” value (MtmiR171b [1]; vs control plant) is reported as “increase”, the “expression of the HAM1 gene” value (MtmiR171b [1]; vs control plant) is reported as “decrease” and the “expression of the HAM2 gene” value (MtmiR171b [1]; vs control plant) is reported as “decrease”. The “accumulation of pre-MtmiR171b” value (MtmiR171b [1]; vs control plants) was “increase”, the “number of lateral roots” value (Medicago truncatula; [5]) was “reduction” and the “number of lateral roots” value (Medicago truncatula; watering with MtmiPEP171b1 at 0.1 μM once daily for 5 days) was “reduction”. For the same molecule, the “accumulation of MtmiR171b” value (MtmiR171b [2]) was “increase”, the “expression of the HAM1 gene” value (MtmiR171b [2]) was “decrease” and the “expression of the HAM2 gene” value (MtmiR171b [2]) was “decrease”. The “effect on the accumulation of the other miRNAs (precursors of MtmiR169, 169a, 171a, 171h, 393a, 393b, 396a, 396b)” value [3] was “not on the other miRNAs”, the “relative expression of pre-MtmiR171b (expression of MtmiR171b)” value (MtmiR171b [4]; tobacco expressing MtmiR171b) was “increases” and the “accumulation of MtmiR171b” value (MtmiR171b [4]; tobacco expressing MtmiR171b, MtmiPEP171b1 sprayed (0.1 μM) twice, 12 h and 30 min before sampling) was “increase”. The “accumulation of MtmiR171b” value (MtmiR171b [4]; [6]) was “increase”, the “accumulation of pre-MtmiR171b” value (MtmiR171b [4]; [6]) was “increase” and the “expression of MtmiR171b (pre-MtmiR171b) with MtmiPEP171b1 with or without protein tags” value (MtmiR171b [4]; tobacco leaves, tags His, HA or GFP) was “increases the expression of MtmiR171b, and this effect is independent of the presence of tags”. The “relative expression of MtmiR171b” value (MtmiR171b [4]; tobacco, vector expressing mtmiPEP171b vs empty vector, ATT mutant or degenerate ORF, FIG. 21) was “increases” and the “accumulation of MtmiR171b in the absence of translation of MtmiPEP171b1” value (MtmiR171b [4]; tobacco, pri-MtmiR171b with ATG of miORF171b replaced with ATT (or miORF deleted) vs wild-type pri-MtmiR171b) was “marked decrease”.

“MPSWHGMVLLPYVKHTHASTHTHTHNIYGCACELVFH (listed as Arabidopsis thaliana) [AtmiPEP164a1]” was tested, and the “accumulation of miR164a (Northern blot)” value (AtmiR164a) was “increase” and the plant growth (Arabidopsis thaliana) was “increases plant growth significantly”.

B1: ATGCTTCTTCATAGGCTCTCCAAATTTTGCAAAATTGAAAGAGACATAGTATATATATCTTAG (nucleic acid, listed as Medicago truncatula)
DNA: ATGCTTCTTCATAGGCTCTCCAAATTTTGCAAAATTGAAAGAGACATAGTATATATATCTTAG
modifications: listed as DNA, chemistry not fully specified
In the case of B1, the “number of lateral roots” value (Medicago truncatula; [5]) is reported as “reduction”, the “accumulation of MtmiR171b” value (MtmiR171b [2]) is reported as “increase” and the “expression of the HAM1 gene” value (MtmiR171b [2]) is reported as “reduction”. The “expression of the HAM2 gene” value (MtmiR171b [2]) was “reduction” and the “relative expression of pre-MtmiR171b (expression of MtmiR171b)” value (MtmiR171b [4]; tobacco expressing MtmiR171b) was “increase”.

B2: MEPGFVFVLFPTHLSTQHTQREKSILVMGLNLQSAKQSDKQNSKERKKNTQINSQRIPYRQGGQCSKVLSP (peptide)
chain: MEPGFVFVLFPTHLSTQHTQREKSILVMGLNLQSAKQSDKQNSKERKKNTQINSQRIPYRQGGQCSKVLSP
modifications: Drosophila melanogaster
B2 was tested, and the “expression of DmmiR8 (relative expression of Pre-miR8)” value (DmmiR8; D. melanogaster cells overexpressing DmmiPEP8 vs miPEP8 with mutated start codons) was “increases” and the “expression of DmmiR8 (relative expression of Pre-miR8)” value (DmmiR8; D. melanogaster cells overexpressing wild-type DmmiR8 vs DmmiR8 with mutated miPEP8 start codons) was “increases”.
